The values below come from patent US10017481B2, “Conformationally constrained, fully synthetic macrocyclic compounds” (POLYPHOR AG, priority 2012, dated 2018).

Each structure is given as a SMILES string. Bounds are passed on as bounds.

Common to all, as to format: in vitro ADME
Series [1] can be described thus: Metabolic stability assay, human liver microsomes. Particulars: human microsomes, 10 μM, 37° C.; for half-life at 10 μM: both sexes, liver microsomes, 1 mg/ml protein, read-out: Metabolic Stability T ½ [min] hum. On the procedure:
(§1) 5. Plasma and Metabolic Stability Assays
(§2) Example compounds were dissolved in DMSO/H2O 90:10 to a final concentration of 10 mM for plasma stability determination and metabolic stability determination.
(§3) The assays were conducted according to literature precedents (F. P. Guengerich, Analysis and Characterization of Enzymes; in: Principles and Methods of Toxicology, A. W. Hayes (Ed.) Raven Press: New York, 1989, 777-813; R. Singh et al., In vitro metabolism of a potent HIV-protease inhibitor (141W94) using rat, monkey and human liver S9, Rapid Commun. Mass Spectrom. 1996, 10, 1019-1026).
(§4) Metabolic Stability Assay
(§5) Microsomes from a human 50 donor mixed gender pool and 1:1 mixtures of microsomes from CD-1 mouse single-gender pools are purchased from Celsis (Belgium). The enzymatic reaction is performed in a buffer containing an NADPH regeneration system and microsomes with the following end concentrations: 100 mM potassium phosphate buffer (all from Sigma), 1 mg/mL glucose-6-phosphate, 1 mg/mL β-nicotinamide adenine dinucleotide phosphate (NADP), 0.65 mg/mL magnesium chloride, 0.8 units/mL of glucose-6-phosphate dehydrogenase (prediluted with 5 mM citrate buffer), 10 μM compound and 1 mg/ml microsomal protein. Compounds are incubated at 37° C. in duplicates and samples are taken after 0, 5, 10, 20 and 60 minutes. After acetonitrile precipitation (3 volumes), shaking (2 minutes, 600 rpm) followed by centrifugation (10 minutes, 3200 g), the supernatant is dried reconstituted in the suitable solvent (cf. Table 33) and analyzed by HPLC/MS/MS. Metabolic turnover is expressed in % of the initial 0 minutes value and half life T½ (min) is calculated. Verapamil for human and propranolol for mouse are used as reference and are assayed with every experimental set.
(In general: Liver microsomes are a subcellular fraction often used to study metabolism.)

A short description of series [2]: Plasma stability assay, human plasma. The following applies: for Plasma Stability 240 min hum [% remain.]: human plasma, 10 μM, 37° C.; for half-life at 10 μM: human, plasma. On the procedure: (§6) 5. Plasma and Metabolic Stability Assays Example compounds were dissolved in DMSO/H2O 90:10 to a final concentration of 10 mM for plasma stability determination and metabolic stability determination. The assays were conducted according to literature precedents (F. P. Guengerich, Analysis and Characterization of Enzymes; in: Principles and Methods of Toxicology, A. W. Hayes (Ed.) Raven Press: New York, 1989, 777-813; R. Singh et al., In vitro metabolism of a potent HIV-protease inhibitor (141W94) using rat, monkey and human liver S9, Rapid Commun. Mass Spectrom. 1996, 10, 1019-1026). Plasma Stability Assay Human plasma (Blutspendedienst SRK, Basel) and CD-1 mouse plasma (mixed gender pool >50 animals, Innovative Research, Calif., USA) are both sodium citrate stabilized. The assay is performed in triplicates at 10 μM compound concentration and 37° C. Samples are taken at 0, 15, 30, 60, 120 and 240 minutes and stopped by precipitation with 3 volumes of acetonitrile/formic acid 98:2 and shaking (2 minutes, 600 rpm) followed by filtration (−20 mm Hg). The filtrate is collected. The filtrate (100 μL) is evaporated and reconstituted in the suitable solvent (cf. Table 33) to be analyzed by HPLC/MS/MS. The resulting peak area counts are expressed in percent of the 0 value and used to determine the endpoint stability in % and the half life T in minutes. In order to monitor assay integrity the degradation of propantheline is assayed with every experimental set.

The nature of series [3]: Plasma stability assay, CD-1 mouse plasma. The following applies: for Plasma Stability 240 min mouse/(rat) [% remain.]: CD-1 mouse plasma, 10 μM, 37° C.; for half-life at 10 μM: both sexes, CD-1, mouse, plasma. As for the experimental part:
as §6

Series [4] can be described thus: Metabolic stability assay, CD-1 mouse microsomes. Particulars: CD-1 mouse microsomes, 10 μM, 37° C.; for half-life at 10 μM: both sexes, 1 mg/ml protein, read-out: Metabolic Stability T ½ [min] mouse/(rat). On the procedure: as §1, §2, §3, §4, §5

Take `C[C@H]1COc2cccc(c2)-c2cccc(c2)C(=O)N(C)[C@H](C(=O)Nc2ccccc2)CCC(=O)N1` [Ex. 72, (9S,14S)-9,15-dimethyl-11,16-dioxo-N-phenyl-7-oxa-10,15-diazatricyclo[15.3.1.1^2,6] docosa-1(21),2(22),3,5,17,19-hexaene-14-carboxamide]: in series [1], the half-life at 10 μM was 22 min and the “Metabolic Stability 60 min hum [% remain.]” value is given as 14 % remain. For the same compound, in series [2], the “Plasma Stability 240 min hum [% remain.]” value was determined as 100 % remain and the half-life at 10 μM was greater than 240 min. Besides, in series [3], the “Plasma Stability 240 min mouse/(rat) [% remain.]” value was determined as 65 % remain and the half-life at 10 μM is greater than 240 min. Further, in series [4], the “Metabolic Stability 60 min mouse/(rat) [% remain.]” value is recorded as 30 % remain and the half-life at 10 μM is 35 min.
For `C[C@H]1COc2cccc(c2)-c2cccc(c2)C(=O)N(C)[C@H](C(=O)NCc2cccc3ccccc23)CCC(=O)N1` [Ex. 74, (9S,14S)-9,15-dimethyl-N-(1-naphthylmethyl)-11,16-dioxo-7-oxa-10,15-diazatricyclo[15.3.1.1^2,6]docosa-1(21),2(22),3,5,17,19-hexaene-14-carboxamide], in series [1], the half-life at 10 μM came to 7 min and the “Metabolic Stability 60 min hum [% remain.]” value was 1 % remain. Besides, in series [2], the “Plasma Stability 240 min hum [% remain.]” value is 100 % remain and the half-life at 10 μM was greater than 240 min. In addition, in series [3], the “Plasma Stability 240 min mouse/(rat) [% remain.]” value is 67 % remain and the half-life at 10 μM is greater than 240 min. Further, in series [4], the “Metabolic Stability 60 min mouse/(rat) [% remain.]” value worked out at 0 % remain and the half-life at 10 μM was 3 min.
With `COc1ccc2c(c1)-c1cccc(c1)C(=O)N(C)[C@H](C(=O)NCCCN)CCC(=O)N[C@H](C)CO2` [Ex. 49, (10R,15S)-N-(3-aminopropyl)-4-methoxy-10,16-dimethyl-12,17-dioxo-8-oxa-11,16-diazatricyclo[16.3.1.0^2,7]docosa-1(22),2,4,6,18,20-hexaene-15-carboxamide], in series [1], the half-life at 10 μM is greater than 60 min and the “Metabolic Stability 60 min hum [% remain.]” value is on record as 100 % remain. For the same compound, in series [2], the “Plasma Stability 240 min hum [% remain.]” value amounted to 95 % remain and the half-life at 10 μM was greater than 240 min. Further, in series [3], the “Plasma Stability 240 min mouse/(rat) [% remain.]” value came to 76 % remain and the half-life at 10 μM was greater than 240 min. Moreover, in series [4], the “Metabolic Stability 60 min mouse/(rat) [% remain.]” value was 92 % remain and the half-life at 10 μM is greater than 60 min.
On to `C[C@H]1COc2cccc(c2)-c2cccc(c2)C(=O)N(C)[C@H](C(=O)NC2CC2)CCC(=O)N1` [Ex. 79, (9S,14S)-N-cyclopropyl-9,15-dimethyl-11,16-dioxo-7-oxa-10,15-diazatricyclo[15.3.1.1^2,6]docosa-1(21),2(22),3,5,17,19-hexaene-14-carboxamide], for which, in series [1], the half-life at 10 μM was greater than 60 min and the “Metabolic Stability 60 min hum [% remain.]” value is given as 95 % remain. In series [2], the “Plasma Stability 240 min hum [% remain.]” value is given as 100 % remain and the half-life at 10 μM was greater than 240 min. Moreover, in series [3], the “Plasma Stability 240 min mouse/(rat) [% remain.]” value stood at 60 % remain and the half-life at 10 μM is greater than 240 min. Further, in series [4], the “Metabolic Stability 60 min mouse/(rat) [% remain.]” value turned out to be 73 % remain and the half-life at 10 μM is greater than 60 min.
For `C[C@H]1COc2cccc(c2)-c2cccc(c2)C(=O)N(C)[C@H](C(=O)O)CCC(=O)N1` [Ex. 69, (9S,14S)-9,15-dimethyl-11,16-dioxo-7-oxa-10,15-diazatricyclo[15.3.1.1^2,6]docosa-1(21),2(22),3,5,17,19-hexaene-14-carboxylic acid], in series [1], the half-life at 10 μM is greater than 60 min and the “Metabolic Stability 60 min hum [% remain.]” value amounted to 100 % remain. For the same compound, in series [2], the “Plasma Stability 240 min hum [% remain.]” value is recorded as 91 % remain and the half-life at 10 μM was greater than 240 min. In series [3], the “Plasma Stability 240 min mouse/(rat) [% remain.]” value came out at 45 % remain and the half-life at 10 μM came to 200 min. Besides, in series [4], the “Metabolic Stability 60 min mouse/(rat) [% remain.]” value is 100 % remain and the half-life at 10 μM is greater than 60 min.
For the compound `COc1ccc2c(c1)-c1cccc(c1)C(=O)N(C)[C@H](C(=O)O)CCC(=O)N[C@H](C)CO2` [Ex. 42, (10R,15S)-4-methoxy-10,16-dimethyl-12,17-dioxo-8-oxa-11,16-diazatricyclo[16.3.1.0^2,7]docosa-1(22),2,4,6,18,20-hexaene-15-carboxylic acid], in series [1], the half-life at 10 μM was greater than 60 min and the “Metabolic Stability 60 min hum [% remain.]” value stood at 100 % remain. In series [2], the “Plasma Stability 240 min hum [% remain.]” value is on record as 91 % remain and the half-life at 10 μM is greater than 240 min. Also, in series [3], the “Plasma Stability 240 min mouse/(rat) [% remain.]” value came to 100 % remain and the half-life at 10 μM is greater than 240 min. In addition, in series [4], the “Metabolic Stability 60 min mouse/(rat) [% remain.]” value came to 100 % remain and the half-life at 10 μM was greater than 60 min.
For `C[C@H]1COc2cccc(c2)-c2cccc(c2)C(=O)N(C)[C@H](C(=O)NCc2cccnc2)CCC(=O)N1` [Ex. 75, (9S,14S)-9,15-dimethyl-11,16-dioxo-N-(3-pyridinylmethyl)-7-oxa-10,15-diazatricyclo[15.3.1.1^2,6]docosa-1(21),2(22),3,5,17,19-hexaene-14-carboxamide], in series [1], the half-life at 10 μM was 21 min and the “Metabolic Stability 60 min hum [% remain.]” value was 12 % remain. In series [2], the “Plasma Stability 240 min hum [% remain.]” value is listed as 93 % remain and the half-life at 10 μM is greater than 240 min. Moreover, in series [3], the “Plasma Stability 240 min mouse/(rat) [% remain.]” value was 55 % remain and the half-life at 10 μM was greater than 240 min. Also, in series [4], the “Metabolic Stability 60 min mouse/(rat) [% remain.]” value turned out to be 48 % remain and the half-life at 10 μM was found to be 53 min.
Consider `COc1ccc2c(c1)-c1cccc(c1)C(=O)N(C)[C@H](C(N)=O)CCC(=O)N[C@H](C)CO2` [Ex. 43, (10R,15S)-4-methoxy-10,16-dimethyl-12,17-dioxo-8-oxa-11,16-diazatricyclo[16.3.1.0^2,7]docosa-1(22),2,4,6,18,20-hexaene-15-carboxamide], for which, in series [1], the half-life at 10 μM was greater than 60 min and the “Metabolic Stability 60 min hum [% remain.]” value came to 100 % remain. In series [2], the “Plasma Stability 240 min hum [% remain.]” value was found to be 97 % remain and the half-life at 10 μM was greater than 240 min. In addition, in series [3], the “Plasma Stability 240 min mouse/(rat) [% remain.]” value amounted to 63 % remain and the half-life at 10 μM was greater than 240 min. In series [4], the “Metabolic Stability 60 min mouse/(rat) [% remain.]” value is 83 % remain and the half-life at 10 μM is greater than 60 min.
For the compound `C[C@H]1COc2cccc(c2)-c2cccc(c2)C(=O)N(C)[C@H](C(=O)NCC(F)(F)F)CCC(=O)N1` [Ex. 78, (9S,14S)-9,15-dimethyl-11,16-dioxo-N-(2,2,2-trifluoroethyl)-7-oxa-10,15-diazatricyclo[15.3.1.1^2,6]docosa-1(21),2(22),3,5,17,19-hexaene-14-carboxamide], in series [1], the half-life at 10 μM was greater than 60 min and the “Metabolic Stability 60 min hum [% remain.]” value came out at 99 % remain. Also, in series [2], the “Plasma Stability 240 min hum [% remain.]” value is 100 % remain and the half-life at 10 μM was greater than 240 min. In addition, in series [3], the “Plasma Stability 240 min mouse/(rat) [% remain.]” value amounted to 86 % remain and the half-life at 10 μM was greater than 240 min. In series [4], the “Metabolic Stability 60 min mouse/(rat) [% remain.]” value came to 92 % remain and the half-life at 10 μM is greater than 60 min.
